# Experimental data from patent US8003658B2, “Quinazoline derivatives for inhibiting cancer cell growth and method for the preparation thereof” (Hanmi Holdings Co., Ltd., priority 2004, dated 2011).
# Where two headings read alike, the source gives them in different places.
# How the values were obtained:
# [1] = tested on: SW-620 (ATCC: CCL-227); assay: Test of cancer cell growth inhibition (SRB), SW-620; details: Homo sapiens, SW-620, 72 h, read-out: IC50 SW-620
# [2] = tested on: A431 (ATCC: CRL-1555); assay: Test of cancer cell growth inhibition (SRB), A431; details: read-out: IC50 A431
# [3] = tested on: SK-Br3 (ATCC: HTB-30); assay: Test of cancer cell growth inhibition (SRB), SK-Br3; details: read-out: IC50 SK-Br-3
# [4] = EGFR overexpressed A431, 72 hours, SRB
# [5] = Erb-B2 overexpressed SK-Br3, 72 hours, SRB
Compound,IC50 [1] [nM],"IC50 ([2]; Homo sapiens, A-431, 72 h) [nM]","IC50 ([3]; Homo sapiens, SK-BR-3, 72 h) [nM]","IC50 [2, 4] [nM]","IC50 [3, 5] [nM]"
"COCC(=O)NCC(=O)Nc1ccc2ncnc(Nc3ccc(OCc4cccc(F)c4)c(Cl)c3)c2c1 [Example 2-4, N-({4-[3-chloro-4-(3-fluoro-benzyloxy)-phenylamino]-quinazolin-6-ylcarbamoyl}-methyl)-2-methoxy-acetamide]",> 10000,206,245,–,–
"C=CC(=O)NCC(=O)Nc1ccc2ncnc(Nc3ccc(OCc4cccc(F)c4)c(Cl)c3)c2c1 [Example 4, N-({4-[3-chloro-4-(3-fluoro-benzyloxy)-phenylamino]-quinazolin-6-ylcarbamoyl}-methyl)-acrylamide]",> 10000,179,10,–,–
"COCC(=O)N[C@@H](Cc1ccccc1)C(=O)Nc1ccc2ncnc(Nc3ccc(OCc4cccc(F)c4)c(Cl)c3)c2c1 [Example 5-3, (2S)—N-{4-[3-chloro-4-(3-fluoro-benzyloxy)-phenylamino]-quinazolin-6-yl}-2-(2-methoxy-acetylamino)-3-phenyl-propionamide]",> 10000,315,106,–,–
(2S)-2-acryloylamino-N-{4-[3-chloro-4-(3-fluoro-benzyloxy)-phenylamino]-7-(2-methoxyethoxy)-quinazolin-6-yl}-4-methylsulfanyl-butyramide [Example 222],–,–,–,25,9
(2S)-2-acryloylamino-N-{4-[3-chloro-4-(3-fluoro-benzyloxy)-phenylamino]-7-methoxy-quinazolin-6-yl}-4-methanesulfinyl-butyramide [Example 223],–,–,–,54,32
(2S)-2-acryloylamino-N-{4-[3-chloro-4-(3-fluoro-benzyloxy)-phenylamino]-7-methoxy-quinazolin-6-yl}-4-methylsulfanyl-butyramide [Example 221],–,–,–,28,23

# The next lines start with the values.
IC50 [1] [nM],"IC50 ([2]; Homo sapiens, A-431, 72 h) [nM]","IC50 ([3]; Homo sapiens, SK-BR-3, 72 h) [nM]","IC50 [2, 4] [nM]","IC50 [3, 5] [nM]",Compound
–,22,6,–,–,"C=CC(=O)N[C@@H](C)C(=O)Nc1cc2c(Nc3ccc(OCc4cccc(F)c4)c(Cl)c3)ncnc2cc1OCCOC [Example 214, (1S)—N-(1-{4-[3-chloro-4-(3-fluoro-benzyloxy)-phenylamino]-7-(2-methoxyethoxy)-quinazolin-6-ylcarbamoyl}-ethyl)-acrylamide]"
–,59,11,–,–,"C=CC(=O)N1CCC[C@H]1C(=O)Nc1cc2c(Nc3ccc(OCc4cccc(F)c4)c(Cl)c3)ncnc2cc1OCCOC [Example 215, (2S)-1-acryloyl-pyrrolidine-2-carboxylic acid {4-[3-chloro-4-(3-fluoro-benzyloxy)-phenylamino]-7-(2-methoxyethoxy)-quinazolin-6-yl}-amide]"
–,22,21,–,–,"C=CC(=O)N[C@@H](C)C(=O)Nc1cc2c(Nc3ccc(OCc4ccccn4)c(Cl)c3)ncnc2cc1OCCCOC [Example 220, (1S)—N-(1-{4-[3-chloro-4-(pyridin-2-ylmethoxy)-phenylamino]-7-(3-methoxypropoxy)-quinazolin-6-ylcarbamoyl}-ethyl)-acrylamide]"
–,49,12,–,–,"C=CC(=O)N[C@H](C(=O)Nc1ccc2ncnc(Nc3ccc(OCc4ccccn4)c(Cl)c3)c2c1)C(C)C [Example 224, (2S)-2-acryloylamino-N-{4-[3-chloro-4-(pyridin-2-ylmethoxy)-phenylamino]-quinazolin-6-yl}-3-methyl-butyramide]"
–,42,21,–,–,"C=CC(=O)N[C@@H](CC(C)C)C(=O)Nc1ccc2ncnc(Nc3ccc(OCc4ccccn4)c(Cl)c3)c2c1 [Example 225, (2S)-2-acryloylamino-4-methyl-pentanoic acid {4-[3-chloro-4-(pyridin-2-ylmethoxy)-phenylamino]-quinazolin-6-yl}-amide]"
